Data published in PubChem BioAssay AID2060604 (Molecular Pharmacology Branch, DTP, NCI, 2025).

Tested on: 379773-124-R-J2-PDC complex spheroids, viability % test/control
Assay: Anticancer human tumor 379773-124-R-J2-PDC patient-derived endometrial carcinoma cell line growth inhibition [CLK]
Settings: for IC50: curve of first compound; for viability, T/C: stronger effect = lower value; active = viability on the fitted dose curve at most 10% of control; inactive = the rest
Outline: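 Multi-cell-type spheroids combined patient-derived tumor cells with HUVEC endothelial cells and human mesenchymal stem cells. Paired agents were dosed in half-log steps down from about clinical Cmax, or from 10 microM where Cmax was unknown.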

[1] = second compound 0.0316 µM, first compound 0.00949 µM
[2] = second compound 0.0316 µM, first compound 0.03 µM
[3] = second compound 0.0316 µM, first compound 0.0949 µM
[4] = second compound 0.0316 µM, first compound 0.3 µM
[5] = second compound 0.1 µM, first compound 0.00949 µM
[6] = second compound 0.1 µM, first compound 0.03 µM
[7] = second compound 0.1 µM, first compound 0.0949 µM
[8] = second compound 0.1 µM, first compound 0.3 µM
[9] = second compound 0.316 µM, first compound 0.00949 µM
[10] = second compound 0.316 µM, first compound 0.03 µM
[11] = second compound 0.316 µM, first compound 0.0949 µM
[12] = second compound 0.316 µM, first compound 0.3 µM
[13] = second compound 1 µM, first compound 0.00949 µM
[14] = second compound 1 µM, first compound 0.03 µM
[15] = second compound 1 µM, first compound 0.0949 µM
[16] = second compound 1 µM, first compound 0.3 µM
[17] = second compound 3.16 µM, first compound 0.00949 µM
[18] = second compound 3.16 µM, first compound 0.03 µM
[19] = second compound 3.16 µM, first compound 0.0949 µM
[20] = second compound 3.16 µM, first compound 0.3 µM
[21] = second compound 10 µM, first compound 0.00949 µM
[22] = second compound 10 µM, first compound 0.03 µM
[23] = second compound 10 µM, first compound 0.0949 µM
[24] = second compound 10 µM, first compound 0.3 µM
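Note: compound exposure lasted seven days before the viability readout.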
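Throughout, for viability, T/C: 100% = DMSO vehicle control wells.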

C=CC(=O)Nc1cc(Nc2nccc(-c3cn(C)c4ccccc34)n2)c(OC)cc1N(C)CCN(C)C + CN1CCN(c2cc(C(=O)Nc3cc4cc(-c5cnn(C)c5)ccc4cn3)ccn2)CC1
active: viability, T/C (second compound 1 µM, first compound 0.000949 µM) 0.28% | viability, T/C (second compound 1 µM, first compound 0.003 µM) 1.12% | viability, T/C [13] 1.77% | viability, T/C [14] 0.18% | viability, T/C [15] 1.57% | viability, T/C [16] 0.13% | viability, T/C (second compound 3.16 µM, first compound 0.000949 µM) 1.26% | viability, T/C (second compound 3.16 µM, first compound 0.003 µM) 0.19% | viability, T/C [17] 0.82% | viability, T/C [18] 1.59% | viability, T/C [19] 0.11% | viability, T/C [20] 0.61% | viability, T/C (second compound 10 µM, first compound 0.000949 µM) 0.28% | viability, T/C (second compound 10 µM, first compound 0.003 µM) 0.45% | viability, T/C [21] 0.46% | viability, T/C [22] 0.59% | viability, T/C [23] 0.28% | viability, T/C [24] 0.26%
> 300 nM: IC50 (second compound 0.0316 µM) | IC50 (second compound 0.1 µM)
< 0.949 nM: IC50 (second compound 0.316 µM) | IC50 (second compound 1 µM) | IC50 (second compound 3.16 µM) | IC50 (second compound 10 µM)
inactive: viability, T/C (second compound 0.0316 µM, first compound 0.000949 µM) 100% | viability, T/C (second compound 0.0316 µM, first compound 0.003 µM) 93.1% | viability, T/C [1] 99.4% | viability, T/C [2] 84.7% | viability, T/C [3] 96% | viability, T/C [4] 89.7% | viability, T/C (second compound 0.1 µM, first compound 0.000949 µM) 80.4% | viability, T/C (second compound 0.1 µM, first compound 0.003 µM) 74% | viability, T/C [5] 102% | viability, T/C [6] 84% | viability, T/C [7] 76.2% | viability, T/C [8] 84.6% | viability, T/C (second compound 0.316 µM, first compound 0.000949 µM) 20.2% | viability, T/C (second compound 0.316 µM, first compound 0.003 µM) 31.4% | viability, T/C [9] 34% | viability, T/C [10] 34% | viability, T/C [11] 29.6% | viability, T/C [12] 20.9%

NC(=O)C(=Cn1cnc(-c2cc(C(F)(F)F)cc(C(F)(F)F)c2)n1)c1cncnc1 + CN1CCN(c2cc(C(=O)Nc3cc4cc(-c5cnn(C)c5)ccc4cn3)ccn2)CC1
inactive: viability, T/C [1] 84.8% | viability, T/C [2] 64.5% | viability, T/C [3] 39.2% | viability, T/C [4] 22.6% | viability, T/C (second compound 0.0316 µM, first compound 0.949 µM) 11.4% | viability, T/C [5] 60.4% | viability, T/C [6] 57.7% | viability, T/C [7] 39.9% | viability, T/C [8] 17.9% | viability, T/C [9] 16.4% | viability, T/C [10] 14.8%
active: viability, T/C (second compound 0.0316 µM, first compound 3 µM) 5.29% | viability, T/C (second compound 0.1 µM, first compound 0.949 µM) 8.03% | viability, T/C (second compound 0.1 µM, first compound 3 µM) 2.96% | viability, T/C [11] 7.32% | viability, T/C [12] 3.49% | viability, T/C (second compound 0.316 µM, first compound 0.949 µM) 1.06% | viability, T/C (second compound 0.316 µM, first compound 3 µM) 0.04% | viability, T/C [13] 0.1% | viability, T/C [14] 0.12% | viability, T/C [15] 0.3% | viability, T/C [16] 0.14% | viability, T/C (second compound 1 µM, first compound 0.949 µM) 1.96% | viability, T/C (second compound 1 µM, first compound 3 µM) 0.06% | viability, T/C [17] 2.45% | viability, T/C [18] 0.72% | viability, T/C [19] 0.44% | viability, T/C [20] 0.13% | viability, T/C (second compound 3.16 µM, first compound 0.949 µM) 0.11% | viability, T/C (second compound 3.16 µM, first compound 3 µM) 0.11% | viability, T/C [21] 0.45% | viability, T/C [22] 0.13% | viability, T/C [23] 1.03% | viability, T/C [24] 0.18% | viability, T/C (second compound 10 µM, first compound 0.949 µM) 0.19% | viability, T/C (second compound 10 µM, first compound 3 µM) 0.17%
47.7 nM: IC50 (second compound 0.1 µM)
< 9.49 nM: IC50 (second compound 0.316 µM) | IC50 (second compound 1 µM) | IC50 (second compound 3.16 µM) | IC50 (second compound 10 µM)
59 nM: IC50 (second compound 0.0316 µM)

Nc1ccccc1NC(=O)c1ccc(CNC(=O)OCc2cccnc2)cc1 + CN1CCN(c2cc(C(=O)Nc3cc4cc(-c5cnn(C)c5)ccc4cn3)ccn2)CC1
3110 nM: IC50 (second compound 0.0316 µM)
inactive: viability, T/C (second compound 0.0316 µM, first compound 0.0316 µM) 89.8% | viability, T/C (second compound 0.0316 µM, first compound 0.1 µM) 92.6% | viability, T/C (second compound 0.0316 µM, first compound 0.316 µM) 113% | viability, T/C (second compound 0.0316 µM, first compound 1 µM) 104% | viability, T/C (second compound 0.0316 µM, first compound 3.16 µM) 49.1% | viability, T/C (second compound 0.0316 µM, first compound 10 µM) 10.4% | viability, T/C (second compound 0.1 µM, first compound 0.0316 µM) 82.2% | viability, T/C (second compound 0.1 µM, first compound 0.1 µM) 81% | viability, T/C (second compound 0.1 µM, first compound 0.316 µM) 111% | viability, T/C (second compound 0.1 µM, first compound 1 µM) 66.2% | viability, T/C (second compound 0.1 µM, first compound 3.16 µM) 36% | viability, T/C (second compound 0.316 µM, first compound 0.0316 µM) 21.2% | viability, T/C (second compound 0.316 µM, first compound 0.1 µM) 27.6% | viability, T/C (second compound 0.316 µM, first compound 0.316 µM) 17.5% | viability, T/C (second compound 0.316 µM, first compound 1 µM) 13.2%
1970 nM: IC50 (second compound 0.1 µM)
< 31.6 nM: IC50 (second compound 0.316 µM) | IC50 (second compound 1 µM) | IC50 (second compound 3.16 µM) | IC50 (second compound 10 µM)
active: viability, T/C (second compound 0.1 µM, first compound 10 µM) 5.29% | viability, T/C (second compound 0.316 µM, first compound 3.16 µM) 4.61% | viability, T/C (second compound 0.316 µM, first compound 10 µM) 0.06% | viability, T/C (second compound 1 µM, first compound 0.0316 µM) 0.13% | viability, T/C (second compound 1 µM, first compound 0.1 µM) 0.25% | viability, T/C (second compound 1 µM, first compound 0.316 µM) 0.3% | viability, T/C (second compound 1 µM, first compound 1 µM) 1.14% | viability, T/C (second compound 1 µM, first compound 3.16 µM) 0.04% | viability, T/C (second compound 1 µM, first compound 10 µM) 0.92% | viability, T/C (second compound 3.16 µM, first compound 0.0316 µM) 0.08% | viability, T/C (second compound 3.16 µM, first compound 0.1 µM) 0.1% | viability, T/C (second compound 3.16 µM, first compound 0.316 µM) 0.08% | viability, T/C (second compound 3.16 µM, first compound 1 µM) 1.25% | viability, T/C (second compound 3.16 µM, first compound 3.16 µM) 0.1% | viability, T/C (second compound 3.16 µM, first compound 10 µM) 0.09% | viability, T/C (second compound 10 µM, first compound 0.0316 µM) 0.15% | viability, T/C (second compound 10 µM, first compound 0.1 µM) 0.81% | viability, T/C (second compound 10 µM, first compound 0.316 µM) 0.62% | viability, T/C (second compound 10 µM, first compound 1 µM) 1.15% | viability, T/C (second compound 10 µM, first compound 3.16 µM) 1.4% | viability, T/C (second compound 10 µM, first compound 10 µM) 0.15%
